| SMILES | melting point |
| --- | --- |
| CCN(c1ccc([N+](=O)[O-])cc1[N+](=O)[O-])S(=O)(=O)c1ccc(C)cc1 | 135 to 136 °C |
| CS(=O)c1cc(=O)c2ccc(N3CCOCC3)cc2s1 (stereo not drawn) | 198 to 200 °C |
| CCOC(=O)C(=O)Nc1ccc2c(c1)-c1c(c(C(=O)C(C#N)C(=O)Nc3ccccc3)nn1-c1ccccc1)CS2 (stereo not drawn) | 273 to 277 °C |
| CCCCc1cc2c(Nc3ccc4[nH]ccc4c3)c(C#N)cnc2s1 | 210 °C |
| COc1nccc2c1ccn2-c1ccc(C(F)(F)F)cc1Cl | 112 to 115 °C |
| COc1c(C2CCN(CCCCNC(=O)c3ccc(-c4ccc(Cl)cc4)cn3)CC2)ccc2c1CCCC2 | 103 to 105 °C |
| CCCCCCCCCCc1ccc2c(c1)C(=O)C(=COC(=O)c1ccccc1)CC2 | 64 to 66 °C |
| CC(=O)CCc1ccc2c(c1)Cc1ccccc1-2 | 99 to 101 °C |
| NS(=O)(=O)c1ccc(-n2nc(C(F)F)cc2-c2nc3ccccc3s2)cc1 | 247 to 249 °C |
| CCc1cnc(N2CCN(C(=O)c3ccc(Nc4ncnc5ccccc45)cc3)CC2)nc1 | 248 to 249 °C |
| CC1C(=O)Oc2cc(N3CCOCC3)c(Br)cc21 (stereo not drawn) | 99 to 100 °C |
| C=Cc1ccc(C(=O)Oc2ccc(NS(C)(=O)=O)cc2)cc1 | 172 to 173 °C |
| COC(=O)c1ccc(C2CC(=O)NC2(CO)CO)c([N+](=O)[O-])c1 (stereo not drawn) | 144 to 145 °C |
| CCOC(=O)C1(C(=O)OCC)CCC2(CC1)NCCc1cc(OC)ccc12 | 81 to 83 °C |
| O=C1N=c2ccccc2=C1C1CCNCC1 | 156 °C |
| O=C(O)c1cc(OCCCOc2ccc(-c3ccccc3)cc2)cc(OCCCOc2ccc(-c3ccccc3)cc2)c1 | 186 to 187 °C |
| CCOC(=O)C(=O)CC(=O)c1cn(Cc2ccccc2F)c2cc(Cl)ccc2c1=O | 173 to 175 °C |
| CN(SC(Cl)(Cl)Cl)C(=O)OC(C(Oc1ccc(Cl)cc1)n1cncn1)C(C)(C)C (stereo not drawn) | 110 to 112 °C |
| Cc1c(N)c(C)c(C(C)C)c2c1CC(C)(CN1CCC(c3ccccc3)CC1)O2 (stereo not drawn) | 128 to 131 °C |
| C[C@@H](n1cnc2cc(-c3ccc(F)cc3)sc2c1=O)[C@](O)(Cn1cncn1)c1ccccc1F | 213 to 225 °C |
| N#Cc1c(N2CCN(C(=O)c3ccco3)CC2)c2cc(Cl)cnc2n(Cc2cccc(F)c2)c1=O | 134 °C |
| COC(=O)COc1ncccc1Oc1cc(NC(=O)CC(=O)C(F)(F)F)c(F)cc1Cl | 159 °C |
| O=C(NCc1ccccc1)c1ccnc(NC(=O)c2cc(F)cc(F)c2)c1 | 185 to 187 °C |
| COc1ccc(-c2cncc(OC3SCC(O)C(O)C3O)c2)cc1Cl (stereo not drawn) | 165 °C |
| N#Cc1ccc(/C=C/S(=O)(=O)CS(=O)(=O)/C=C/c2ccc(C#N)cc2F)c(F)c1 | 268 to 270 °C |

| SMILES | melting point |
| --- | --- |
| CCOC(=O)C1=C(C)Nc2nc(N3CCOCC3)nc(N3CCOCC3)c2C1c1cccc2nonc12 (stereo not drawn) | 234 °C |
| Cn1c(SC(C)(CO)c2ccccc2)cc2ccccc21 (stereo not drawn) | 118 to 119 °C |
| CC1(C)Oc2ccc([N+](=O)[O-])cc2C=C1CBr | 107 °C |
| COc1ccc(-c2nnc3c4ccccc4c(Cl)nn23)cc1 | 192 to 193 °C |
| COc1ccc(OC)c2c(Nc3cccc(Br)c3)c(C#N)cnc12 | 72 to 74 °C |
| CC(C)(C)n1ncc(SCc2ccc(Oc3ccc(C(F)(F)F)cc3)cc2)c(Cl)c1=O | 152 to 156 °C |
| CN(CCNC(=O)c1nc(Cl)c(N)nc1N)CCC(=O)NCCN | 140 to 142 °C |
| c1ccc2c(c1)CC[C@H]1O[C@@H]21 | 47 to 48 °C |
| O=C1NCC(CN2C(=O)C3(COc4cc5c(cc43)OCO5)c3ccccc32)O1 (stereo not drawn) | 195 to 202 °C |
| COC(=O)c1ncccc1N | 139 to 146 °C |
| NC(=O)CNC(=O)CN1CCCC1=O | 147 to 148 °C |
| CCC[C@H]1CC[C@H](CCc2cc(F)c(C#N)c(F)c2)CC1 | 27.3 °C |
| Cc1ccc(F)cc1C(=O)Nc1ccc(C(=O)N2Cc3ccccc3Oc3ccccc32)cn1 | 180 to 186 °C |
| CCn1c(-c2ccnc(N)c2)nnc1C(C)(C)Oc1c(F)cc(Cl)cc1F | 150 °C |
| CCOc1ccc(OC(CCC(=O)O)C2(O)CN3CCC2CC3)cc1 (stereo not drawn) | 75 to 77 °C |
| O=C1O[C@@H](CO)CN1c1ccc(N2C[C@@H]3C[C@H]2CS3)c(F)c1 | 156 to 157 °C |
| CCCc1ccc(-n2nc(Cl)cc2-c2ccc(S(C)(=O)=O)cc2)cc1Cl | 119 to 122 °C |
| CCC(C)C(NC(=O)OCc1ccccc1)C(=O)NC(Cc1c[nH]c2ccccc12)C(=O)OC (stereo not drawn) | 152 to 155 °C |
| COc1ccc(C(=O)c2ccc(OCc3nc(-c4ccccc4)oc3C)cc2)c(OC(C)C(=O)O)c1 (stereo not drawn) | 100 to 102 °C |
| CCOC(=O)c1sc(C(=O)OCC)c2c1OCC(CC)(CC)CO2 | 100 °C |
| CSCC[C@@H](NC(=O)OC(C)(C)C)C(=O)Nc1ccc(N2C[C@H](CNC(=O)c3ccc(Cl)s3)OC2=O)cc1 | 183 °C |
| Nc1nc2ccc(NC(=O)c3ccccc3)cc2s1 | 213 to 215 °C |
| CC(C)(C)C(=O)Nc1onc2c1CCC2 | 113 °C |
| Cc1ccc(S(=O)(=O)OCC(C)(O)C(=O)c2ccccc2)cc1 (stereo not drawn) | 88 to 90 °C |
| O=c1[nH]c2cc(Br)sc2[nH]c1=O | > 300 °C |

| SMILES | melting point |
| --- | --- |
| CC(C)(Cc1ccc(O)c2ncccc12)[N+](=O)[O-] | 133 to 134 °C |
| COc1ccc(C(=O)NCCN2CCC(Oc3ccc(Cl)c(Cl)c3)CC2)cc1 | 110 to 112 °C |
| CCOC(=O)c1nnn(-c2ccccc2)c1N | 124 to 126 °C |
| CC(C)(C)OC(=O)NCCc1ccc(Oc2c(Cl)cnc(C(F)(F)F)c2Cl)cc1 | 137 to 140 °C |
| Cn1nc(-c2nc(C=O)c(Cl)cc2F)c(Cl)c1OC(F)F | 120 to 121 °C |
| CC(C)(C)NC(=O)C(O)c1cccc(Cl)c1 (stereo not drawn) | 93 to 99 °C |
| Nc1c(O)c(Br)cc(Br)c1C(=O)O | 162 to 164 °C |
| COC(=O)c1sc2c(c1N=C1CCCN1C)c1ccccc1c(=O)n2-c1ccccc1C | 209 to 211 °C |
| O=c1[nH]nc2n1-c1ccc(Cl)nc1C(c1ccccc1Cl)=NC2O (stereo not drawn) | 260 to 262 °C |
| Cc1onc(NS(=O)(=O)c2cc(-c3ncccn3)ccc2-c2ccccc2CN(C)C(=O)CC(C)(C)C)c1C | 120 to 128 °C |
| CCCc1c(OCCCOc2ccc3c(c2CCC)OC(CCC(=O)OC)CC3=O)ccc(C(C)=O)c1O (stereo not drawn) | 101 to 102 °C |
| CC(C)(C)c1cc(C(=O)c2ncco2)cc(C(C)(C)C)c1O | 127 to 130 °C |
| Cc1ccc2[nH]c(=O)c(C#N)c(N3CCN(C(=O)c4cccs4)CC3)c2c1 | 269 °C |
| CC(=Cc1ccc(C(C)(C)C)cc1)C[N+]1([O-])CCCCC1 | 82 to 88 °C |
| CN1CC(OC(=O)c2ccccc2)N(N2CC=C(C(C)(C)C)O2)C1=O (stereo not drawn) | 165 to 166 °C |
| CCn1c(=O)c2[nH]c(/C=C/c3ccc(-c4ccccc4)cc3)nc2n(CC)c1=O | > 270 °C |
| CS(=O)(=O)c1ccc(-c2cnn(CC(F)(F)F)c(=O)c2C2CCCCC2)cc1 | 215 to 218 °C |
| CCOC(=O)C1=C(CCl)NC(C)=C(C(=O)OC)C1c1cccc([N+](=O)[O-])c1 (stereo not drawn) | 119 to 120 °C |
| CCOC(=O)c1ccc(-c2cnc3c(c2)N(Cc2c(Cl)cccc2Cl)C(=O)CN3)cc1 | 226 °C |
| CN(C)C(=O)Oc1ccc(CCl)cc1 | 68 °C |
| OC(CN1CCNCC1)Cn1c2ccccc2c2cc(-c3ccccc3)ccc21 (stereo not drawn) | 120 °C |
| OC(CCN1CCN(c2ccccc2)CC1)COc1ccc(Br)cc1 (stereo not drawn) | 100 to 103 °C |
| CCCCCCCCCCCCCCCCCCOc1cc(C(=O)O)cc(C(=O)OC)c1 | 81 to 83 °C |
| Cc1c(CNCC2CCOCC2)[nH]c2c(C)c(NC(=O)c3ccc(OC[C@@H]4CCCO4)cc3)ccc12 | 184 to 185 °C |
| O=C(c1ccccc1)C1CCN(Sc2ccncc2)CC1 | 123 to 124 °C |

| SMILES | melting point |
| --- | --- |
| CCC(CC)(CC(=O)Nc1cccc(OCc2ccc3ccccc3n2)c1)C(=O)O | 149 to 150 °C |
| COc1c(N2CC3CCC(N)C3C2)c(F)cc2c(=O)n(N)c(=O)n(C3CC3)c12 (stereo not drawn) | 250 to 252 °C |
| C=COCCN1C(=O)CN(C)C1=O | 54 to 56 °C |
| CCc1nc(N)nc(N)c1-c1ccc(NCc2ccccc2)c([N+](=O)[O-])c1 | 253 to 255 °C |
| CC(=O)N1CCc2cc(S(=O)(=O)n3c(CCC(=O)O)cc4nc(Cl)ccc43)ccc21 | 216 °C |
| CSc1ccc(N)c(C#N)c1 | 50 to 54 °C |
| Cc1ccc(C)c(CN2CCN(C)CC(NC(=O)c3n[nH]c4ccccc34)C2)c1 (stereo not drawn) | 168 to 170 °C |
| N#Cc1c(N2CCN(C(=O)c3cccs3)CC2)c2cccnc2n(C2CCCCC2)c1=O | 192 °C |
| OC1(COc2ccccc2Cc2ccccc2)CN2CCC1CC2 (stereo not drawn) | 71 to 73 °C |
| COc1ccccc1-n1c(=O)[nH]c2c(C(N)=O)nc(-c3cccc4[nH]ccc34)nc21 | 312 to 313 °C |
| CC(=O)N1C=CC(C(C)=O)(c2ccccc2)C=C1 | 93 to 95 °C |
| CCOC(=O)c1csc(C=O)n1 | 65 to 67 °C |
| O=C(CNCc1ccc(OCc2ccccc2)cc1)NCCCOc1ccccc1 | 55 to 56 °C |
| CC(C#N)(COc1cc(F)c(F)cc1-c1ccsc1)NC(=O)c1ccc(OC(F)(F)F)cc1 (stereo not drawn) | 128 to 130 °C |
| CCNC(=S)NS(=O)(=O)c1cc2c(cc1OC)OCCC2CNC(=O)N1CC(C)=C(CC)C1=O (stereo not drawn) | 147 °C |
| CC(C)(C)Nc1cc(Cl)nc(N2CCCC2)n1 | 148 to 150 °C |
| CC(C)Oc1ccc(/C=C(\NC(=O)c2ccc(OCCCC3CC3)cc2)C(=O)NCCO)cc1 | 64 to 66 °C |
| CCOC(=O)/C=C/c1ccc(OCC2CCCO2)cc1Oc1ncc(C(F)(F)F)cc1Cl (stereo not drawn) | 84 to 86 °C |
| COC(=O)C1(C(F)CCCCOc2ccc(Cl)cc2)CO1 (stereo not drawn) | 76 to 78 °C |
| O=C(C[C@@H](NC(=O)C(F)(F)F)C(=O)O)c1ccc(F)c(F)c1 | 136 to 137 °C |
| c1ccc(-c2cnn3cc(-c4ccc(CCCN5CCOCC5)cc4)cnc23)cc1 | 147 to 149 °C |
| CNC(=O)c1cc(Br)cc(C)c1N | 133 to 135 °C |
| CSC1CCC(=O)C(C(=O)c2ccc(S(C)(=O)=O)cc2Cl)C1=O (stereo not drawn) | 146 to 149 °C |

Source: a melting point compilation (Tetko et al.; mined from patent text by program, amines drawn as free bases though some values may be those of a salt)
